From patent publication US9428487B2, “Heteroaromatic amides and thioamides as pesticides” (Bayer Intellectual Property GmbH, priority 2008, dated 2016)

Key:
[1] = tested on: green peach aphid (Myzus persicae); assay: Myzus test; type: in vivo; conditions: application rate 500 g/ha, spray on Chinese cabbage leaf slices, read-out: efficacy (aphids killed)
Procedure: • Solvent: 78.0 parts by weight of acetone • 1.5 parts by weight of dimethylformamide • Emulsifier: 0.5 part by weight of alkylaryl polyglycol ether
To produce an appropriate active ingredient formulation, 1 part by weight of active ingredient is mixed with the amounts of solvent and emulsifier specified and the concentrate is diluted to the desired concentration with emulsifier-containing water.
Chinese cabbage leaf slices (Brassica pekinensis) infested by all stages of the green peach aphid (Myzus persicae) are sprayed with an active ingredient formulation of the desired concentration.
After the desired time, the efficacy in % is determined 100% means that all aphids have been killed; 0% means that no aphids have been killed.

[2] = Determination of log P values by HPLC on reversed-phase column (formic acid method); type: physicochemical; conditions: reversed-phase HPLC column (C 18), pH 3.4, HPLC, reversed-phase C 18, acidic range (pH 3.4), formic acid eluents, 55° C.; read-out: logP (HCOOH)
Procedure: 1) Description of Method for Determining the Log P Values (Formic Acid Method)
The log P values reported in the table were determined according to EEC-Directive 79/831 Annex V.A8 by HPLC (High Performance Liquid Chromatography) on a reversed-phase column (C 18). […]
Eluent A: acetonitrile+1 ml of formic acid/liter. Eluent B: water+0.9 ml of formic acid/liter.
Gradient: from 10% eluent A/90% eluent B to 95% eluent A/5% eluent B in 4.25 min
The calibration was effected with unbranched alkan-2-ones (with 3 to 16 carbon atoms), whose log P values are known (determination of the log P values on the basis of the retention times by linear interpolation between two successive alkanones). The lambda-max values were determined with reference to the UV spectra from 200 nm to 400 nm in the maxima of the chromatographic signals.

SMILES | pest or weed control at 500 g/ha [1] | chromatographic logP [2]
COC1(NC(=O)c2sc(-c3cccnc3)nc2C)CC1 [Compound 129] | ≥ 70% | 1.23
Cc1nc(-c2cccnc2)sc1C(=O)NCc1nccs1 [Compound 130] | ≥ 70% | 1.38
Cc1nc(-c2cccnc2)sc1C(=O)N(Cc1ccco1)CC(F)(F)F [Compound 131] | ≥ 70% | 2.56
Cc1nc(-c2cccnc2)sc1C(=O)NCC1OCC(CCl)O1 (centres unmarked) [Compound 132] | ≥ 70% | 1.51
Cc1nc(-c2cccnc2)sc1C(=O)N(C)CC(=O)N(C)C [Compound 133] | ≥ 70% | 0.8
CN(Cc1ccccn1)C(=O)c1cnc(-c2cccnc2)s1 [Compound 134] | ≥ 70% | 0.41
Cc1nc(-c2cccnc2)sc1C(=O)NCc1cccnc1 [Compound 135] | ≥ 70% | 0.46
CN(CCF)C(=O)c1cnc(-c2cccnc2)s1 [Compound 136] | ≥ 70% | 1.17
CCN(CC#N)C(=O)c1cnc(-c2cccnc2)s1 [Compound 137] | ≥ 70% | 1.28
COC(=O)C[n+]1cccc(-c2nc(C)c(C(=O)NCC(F)(F)F)s2)c1 [Compound 138] | ≥ 70% | 1.09
CC#CCN(CC(F)(F)F)C(=O)c1sc(-c2cccnc2)nc1C [Compound 139] | ≥ 70% | 2.47
Cc1nc(-c2cccnc2)sc1C(=O)N(CC#N)C(=O)C1(F)CC1 [Compound 140] | ≥ 70% | 1.93
CCOC(=O)C(CC)N(C)C(=O)c1sc(-c2cccnc2)nc1C (centres unmarked) [Compound 141] | ≥ 70% | 2.1
Cc1nc(-c2cccnc2)sc1C(=O)N(CC#N)C(C)C [Compound 142] | ≥ 70% | 1.56
CON(C)C(=O)c1sc(-c2cccnc2)nc1C [Compound 143] | ≥ 70% | 1.42
CCOC1(NC(=O)c2sc(-c3cccnc3)nc2C)CC1 [Compound 144] | ≥ 70% | 1.45

SMILES | pest or weed control at 500 g/ha [1] | chromatographic logP [2]
Cc1nc(-c2cccnc2)sc1C(=O)NCc1cc(C)n(C)n1 [Compound 145] | ≥ 70% | 1.38
Cc1nc(-c2cccnc2)sc1C(=O)NC(C(C)C)C(F)(F)F (centres unmarked) [Compound 146] | ≥ 70% | 2.48
Cc1nc(-c2cccnc2)sc1C(=O)NCc1ncc(Cl)cn1 [Compound 147] | ≥ 70% | 1.45
CSCCN(C)C(=O)c1cnc(-c2cccnc2)s1 [Compound 148] | ≥ 70% | 1.38
Cc1nc(-c2cccnc2)sc1C(=O)NC1CCCC(C(F)(F)F)C1 (centres unmarked) [Compound 149] | ≥ 70% | 2.48
Cc1nc(-c2cccnc2)sc1C(=O)NCCC#N [Compound 150] | ≥ 70% | 1.19
Cc1nc(-c2cccnc2)sc1C(=O)NC(C)c1nn(C)c(=O)n1C (centres unmarked) [Compound 151] | ≥ 70% | 1.01
Cc1nc(-c2cccnc2)sc1C(=O)NC1CC(C(F)(F)F)CC(C(F)(F)F)C1 (centres unmarked) [Compound 152] | ≥ 70% | 2.95
Cc1nc(-c2cccnc2)sc1C(=O)NCC1CCCCC1 [Compound 153] | ≥ 70% | 2.43
CC(c1ccccn1)N(C)C(=O)c1cnc(-c2cccnc2)s1 (centres unmarked) [Compound 154] | ≥ 70% | 1.21
Cc1nc(-c2cccnc2)sc1C(=O)NCC1COC(C)(C)O1 (centres unmarked) [Compound 155] | ≥ 70% | 1.48
C#CC(C)(C)NC(=O)c1sc(-c2cccnc2)nc1C [Compound 156] | ≥ 70% | 1.66
Cc1nc(-c2cccnc2)sc1C(=O)NC(C)(C#N)C1CCCO1 (centres unmarked) [Compound 157] | ≥ 70% | 1.69
C#CC(C)ONC(=O)c1sc(-c2cccnc2)nc1C (centres unmarked) [Compound 158] | ≥ 70% | 1.48
Cc1nc(-c2cccnc2)sc1C(=O)N(C)CC1COCCO1 (centres unmarked) [Compound 159] | ≥ 70% | 1.26
